Assay results reported in patent publication US7202280B2, “Methods for the treatment and prevention of pancreatitis and for induction of liver regeneration” (priority 2002, dated 2007).
Marks after values point to notes of the source that are not given here.

System: syngenic and transgenic rats
Assay: Hepatic SSAT activity and polyamine pools after partial hepatectomy
Assay type: in vivo, rat
Conditions: transgenic rats; 24 h regenerating liver; 25 mg/kg 20 and 4 h before operation
Description: FIGS. 4a–4d. Hepatic polyamine pools in syngenic and transgenic rats after partial hepatectomy and methylspermidine. […] Three to five animals in each group. Me-spd, methylspermidine.
The production of transgenic Wistar rats (UKUR30) and mice (UKU181) harboring metallothionein-SSAT fusion gene (Suppola, S., Pietilä, M., Parkkinen, J. J., Korhonen, V. P., Alhonen, L., Halmekytö, M., Porter, C. W., and Jänne, J. (1999) Biochem. J. 338, 311–316) has been described earlier (Alhonen, L., Parkkinen, J. J., Keinänen, T., Sinervirta, R., Herzig, K. H., and Jänne, J. (2000) Proc. Natl. Acad. Sci. U.S.A. 97, 8290–8295; Lukkarinen, J., Gröhn, O., Sinervirta, R., Järvinen, A., Kauppinen, R. A., Jänne, J., and Alhonen, L. (1997) Stroke 28, 639–645). Partial hepatectomy was carried out according to the original method of Higgins and Anderson (Higgins, G. H., and Anderson, R. M. (1931) Arch. Pathol. 12, 186–202). Treatments before partial hepatectomy and the determination of DNA synthesis were carried out as in (Räsänen, T. L., Alhonen, L., Sinervirta, R., Keinänen, T., Herzig, K. H., Suppola, S., Khomutov, A. R., Vepsäläinen, J., and Jänne, J. (2002) J. Biol. Chem. 277, 39867–39872). […] The animals were sacrificed 24 h after the second MDL72527 injection and liver pieces were frozen in liquid nitrogen, homogenized in buffer (25 mM Tris-HCl pH 7.4, 0.1 mM EDTA, 1 mM DTT). An aliquot of the homogenates was used for the polyamine assays. The homogenates were centrifuged (at 13 000×g, for 30 min, at 4° C.) and the supernatants were used for the enzyme activity assays. The Institutional Animal Care and Use Committee of the University of Kuopio and by the Provincial Government approved animal experiments.
FIG. 4 depicts polyamine concentrations in syngenic and transgenic rats at 24 h after partial hepatectomy. […] This in all likelihood reflected the enhanced SSAT activity. […] In transgenic animals, the low spermidine pool was further decreased in response to the operation (FIG. 4c).
Liver regeneration could be restored by a prior administration of α-methylspermidine (Räsänen, T. L., Alhonen, L., Sinervirta, R., Keinänen, T., Herzig, K. H., Suppola, S., Khomutov, A. R., Vepsäläinen, J., and Jänne, J. (2002) J. Biol. Chem. 277, 39867–39872). FIG. 10. depicts thymidine incorporation in livers of transgenic rats before and 24 h after partial hepatectomy. […] Table 3 lists the liver pools of polyamines and their analogues before and after partial hepatectomy. […] The analogues were readily accumulated in the livers.

SMILES: CC(N)CCNCCCCNCCC(C)N (stereo not drawn) [bis-α-methylspermine, 1,12-dimethylspermine]
- Me2-Spm (liver): 381 ± 124 pmoles/mg tissue wet weight
- Me-Spd (liver): 154 ± 6 pmoles/mg tissue wet weight
- Put (liver): 4400 ± 275^a pmoles/mg tissue wet weight
- Spd (liver): 266 ± 55^a pmoles/mg tissue wet weight
- Spm (liver): 6 ± 8^a pmoles/mg tissue wet weight
